According to US12274728B2, “Preparation comprising omega-3 fatty acid salts and extracts of gum resins from Boswellia species” (Evonik Operations GmbH, priority 2019, dated 2025):

System: human monocyte-derived M1 macrophages
Assay: Lipid mediator (LM) formation in human monocyte-derived M1 macrophages, UPLC-MS-MS
Assay type: cell-based
Settings: M1, single agents: extracts 50 μg/mL, AKBA 10 μM, AvailOm® 3 μg/mL, 180 min (FIG. 1)
Procedure: Leukocyte concentrates from freshly withdrawn peripheral blood of healthy adult human donors were provided by the Institute of Transfusion Medicine, University Hospital Jena, Germany. The experimental protocol was approved by the ethical committee of the University Hospital Jena. All methods were performed in accordance with the relevant guidelines and regulations. Peripheral blood mononuclear cells (PBMC) were isolated using dextran sedimentation and Ficoll-Histopaque 1077-1 (Sigma-Aldrich, Taufkirchen, Germany) centrifugation. For differentiation and polarization towards M1 and M2, published criteria were used. […]
Macrophages (2×10^6/ml) were incubated in PBS containing 1 mM CaCl2). […] Supernatants were transferred to 2 ml of ice-cold methanol containing 10 μl of deuterium-labeled internal standards (200 nM […], d4-LTB4, d5-LXA4, d5-RvD2, d4-PGE2 and 10 μM d8-AA) to facilitate quantification. […] LM profiling was analyzed with an Acquity™ UPLC system (Waters, Milford, MA) and a QTRAP 5500 Mass Spectrometer (ABSciex, Darmstadt, Germany) equipped with a Turbo VTM Source and electrospray ionization (ESI). […] Quantification was achieved by calibration curves for each LM. […]

Substance: 3-O-acetyl-11-keto-beta-boswellic acid [AKBA]
- LM formation / LM biosynthesis: did not significantly elevate
